{
  "source": "PubChem BioAssay AID2060901",
  "about": "(Molecular Pharmacology Branch, DTP, NCI, 2025)",
  "tested_on": "422866-222-R5-J1-PDC complex spheroids viability",
  "assay": "Anticancer human tumor 422866-222-R5-J1-PDC patient-derived pancreatic adenocarcinoma cell line growth inhibition [RAS]",
  "conditions": "for IC50: curve of first compound; for viability, T/C: stronger effect = lower value",
  "procedure,_shortened": "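Multi-cell-type spheroids: tumor cells plus HUVEC endothelial cells and mesenchymal stem cells. RAS-pathway inhibitors were combined with targeted agents, each dosed in half-log steps down from clinical Cmax, or from 10 microM when Cmax was unknown.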",
  "data": [
    {"compound": "CC(C)NCC(C(=O)N1CCN(c2ncnc3c2C(C)CC3O)CC1)c1ccc(Cl)cc1", "note": "(centres undefined) + CCn1c(-c2cc(N3CCN(C)CC3)cnc2C(C)OC)c2c3cc(ccc31)-c1csc(n1)CC(NC(=O)C1CC1C)C(=O)N1CCCC(N1)C(=O)OCC(C)(C)C2;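 note: spheroids exposed to compounds for 7 days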;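 for viability, T/C: 100% = DMSO vehicle control viability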", "values": [
      {"measurement": "IC50", "setting": "second compound 0.000949 µM", "value": "< 31.6", "unit": "nM"},
      {"measurement": "IC50", "setting": "second compound 0.003 µM", "value": "< 31.6", "unit": "nM"},
      {"measurement": "IC50", "setting": "second compound 0.00949 µM", "value": "< 31.6", "unit": "nM"},
      {"measurement": "IC50", "setting": "second compound 0.03 µM", "value": "< 31.6", "unit": "nM"},
      {"measurement": "IC50", "setting": "second compound 0.0949 µM", "value": "< 31.6", "unit": "nM"},
      {"measurement": "IC50", "setting": "second compound 0.3 µM", "value": "< 31.6", "unit": "nM"},
      {"measurement": "viability, T/C", "setting": "second compound 0.000949 µM, first compound 0.0316 µM", "value": 29.7, "unit": "%"},
      {"measurement": "viability, T/C", "setting": "second compound 0.000949 µM, first compound 0.1 µM", "value": 25.9, "unit": "%"},
      {"measurement": "viability, T/C", "setting": "second compound 0.000949 µM, first compound 0.316 µM", "value": 20.5, "unit": "%"},
      {"measurement": "viability, T/C", "setting": "second compound 0.000949 µM, first compound 1 µM", "value": 21.1, "unit": "%"},
      {"measurement": "viability, T/C", "setting": "second compound 0.000949 µM, first compound 3.16 µM", "value": 27.7, "unit": "%"},
      {"measurement": "viability, T/C", "setting": "second compound 0.000949 µM, first compound 10 µM", "value": 33.9, "unit": "%"},
      {"measurement": "viability, T/C", "setting": "second compound 0.003 µM, first compound 0.0316 µM", "value": 25.2, "unit": "%"},
      {"measurement": "viability, T/C", "setting": "second compound 0.003 µM, first compound 0.1 µM", "value": 20.6, "unit": "%"},
      {"measurement": "viability, T/C", "setting": "second compound 0.003 µM, first compound 0.316 µM", "value": 17.4, "unit": "%"},
      {"measurement": "viability, T/C", "setting": "second compound 0.003 µM, first compound 1 µM", "value": 13.4, "unit": "%"},
      {"measurement": "viability, T/C", "setting": "second compound 0.003 µM, first compound 3.16 µM", "value": 17.8, "unit": "%"},
      {"measurement": "viability, T/C", "setting": "second compound 0.003 µM, first compound 10 µM", "value": 17.7, "unit": "%"},
      {"measurement": "viability, T/C", "setting": "second compound 0.00949 µM, first compound 0.0316 µM", "value": 20.4, "unit": "%"},
      {"measurement": "viability, T/C", "setting": "second compound 0.00949 µM, first compound 0.1 µM", "value": 15.2, "unit": "%"},
      {"measurement": "viability, T/C", "setting": "second compound 0.00949 µM, first compound 0.316 µM", "value": 14.7, "unit": "%"},
      {"measurement": "viability, T/C", "setting": "second compound 0.00949 µM, first compound 1 µM", "value": 11.6, "unit": "%"},
      {"measurement": "viability, T/C", "setting": "second compound 0.00949 µM, first compound 3.16 µM", "value": 14.1, "unit": "%"},
      {"measurement": "viability, T/C", "setting": "second compound 0.00949 µM, first compound 10 µM", "value": 15.7, "unit": "%"},
      {"measurement": "viability, T/C", "setting": "second compound 0.03 µM, first compound 0.0316 µM", "value": 20.1, "unit": "%"},
      {"measurement": "viability, T/C", "setting": "second compound 0.03 µM, first compound 0.1 µM", "value": 15.8, "unit": "%"},
      {"measurement": "viability, T/C", "setting": "second compound 0.03 µM, first compound 0.316 µM", "value": 14.9, "unit": "%"},
      {"measurement": "viability, T/C", "setting": "second compound 0.03 µM, first compound 1 µM", "value": 11.9, "unit": "%"},
      {"measurement": "viability, T/C", "setting": "second compound 0.03 µM, first compound 3.16 µM", "value": 11.9, "unit": "%"},
      {"measurement": "viability, T/C", "setting": "second compound 0.03 µM, first compound 10 µM", "value": 13.8, "unit": "%"},
      {"measurement": "viability, T/C", "setting": "second compound 0.0949 µM, first compound 0.0316 µM", "value": 16.5, "unit": "%"},
      {"measurement": "viability, T/C", "setting": "second compound 0.0949 µM, first compound 0.1 µM", "value": 17.4, "unit": "%"},
      {"measurement": "viability, T/C", "setting": "second compound 0.0949 µM, first compound 0.316 µM", "value": 13.1, "unit": "%"},
      {"measurement": "viability, T/C", "setting": "second compound 0.0949 µM, first compound 1 µM", "value": 11.7, "unit": "%"},
      {"measurement": "viability, T/C", "setting": "second compound 0.0949 µM, first compound 3.16 µM", "value": 12.4, "unit": "%"},
      {"measurement": "viability, T/C", "setting": "second compound 0.0949 µM, first compound 10 µM", "value": 13.8, "unit": "%"},
      {"measurement": "viability, T/C", "setting": "second compound 0.3 µM, first compound 0.0316 µM", "value": 18.8, "unit": "%"},
      {"measurement": "viability, T/C", "setting": "second compound 0.3 µM, first compound 0.1 µM", "value": 19.6, "unit": "%"},
      {"measurement": "viability, T/C", "setting": "second compound 0.3 µM, first compound 0.316 µM", "value": 14.2, "unit": "%"},
      {"measurement": "viability, T/C", "setting": "second compound 0.3 µM, first compound 1 µM", "value": 11.5, "unit": "%"},
      {"measurement": "viability, T/C", "setting": "second compound 0.3 µM, first compound 3.16 µM", "value": 12.9, "unit": "%"},
      {"measurement": "viability, T/C", "setting": "second compound 0.3 µM, first compound 10 µM", "value": 13.8, "unit": "%"}
    ]},
    {"compound": "Nc1ccn(C2OC(CO)C(O)C2(F)F)c(=O)n1", "note": "(centres undefined) + C#Cc1c(F)ccc2cc(O)cc(-c3ncc4c(N5CC6CCC(C5)N6)nc(OCC56CCCN5CC(F)C6)nc4c3F)c12", "values": [
      {"measurement": "IC50", "setting": "second compound 0.0316 µM", "value": 113, "unit": "nM"},
      {"measurement": "IC50", "setting": "second compound 0.1 µM", "value": 29.2, "unit": "nM"},
      {"measurement": "IC50", "setting": "second compound 0.316 µM", "value": 15.9, "unit": "nM"},
      {"measurement": "IC50", "setting": "second compound 1 µM", "value": "< 3.16", "unit": "nM"},
      {"measurement": "IC50", "setting": "second compound 3.16 µM", "value": "< 3.16", "unit": "nM"},
      {"measurement": "IC50", "setting": "second compound 10 µM", "value": "< 3.16", "unit": "nM"},
      {"measurement": "viability, T/C", "setting": "second compound 0.0316 µM, first compound 0.00316 µM", "value": 90.8, "unit": "%"},
      {"measurement": "viability, T/C", "setting": "second compound 0.0316 µM, first compound 0.01 µM", "value": 84.9, "unit": "%"},
      {"measurement": "viability, T/C", "setting": "second compound 0.0316 µM, first compound 0.0316 µM", "value": 65.7, "unit": "%"},
      {"measurement": "viability, T/C", "setting": "second compound 0.0316 µM, first compound 0.1 µM", "value": 51.1, "unit": "%"},
      {"measurement": "viability, T/C", "setting": "second compound 0.0316 µM, first compound 0.316 µM", "value": 42.1, "unit": "%"},
      {"measurement": "viability, T/C", "setting": "second compound 0.0316 µM, first compound 1 µM", "value": 34.1, "unit": "%"},
      {"measurement": "viability, T/C", "setting": "second compound 0.1 µM, first compound 0.00316 µM", "value": 108, "unit": "%"},
      {"measurement": "viability, T/C", "setting": "second compound 0.1 µM, first compound 0.01 µM", "value": 65.6, "unit": "%"},
      {"measurement": "viability, T/C", "setting": "second compound 0.1 µM, first compound 0.0316 µM", "value": 52.4, "unit": "%"},
      {"measurement": "viability, T/C", "setting": "second compound 0.1 µM, first compound 0.1 µM", "value": 37.6, "unit": "%"},
      {"measurement": "viability, T/C", "setting": "second compound 0.1 µM, first compound 0.316 µM", "value": 39.6, "unit": "%"},
      {"measurement": "viability, T/C", "setting": "second compound 0.1 µM, first compound 1 µM", "value": 38.5, "unit": "%"},
      {"measurement": "viability, T/C", "setting": "second compound 0.316 µM, first compound 0.00316 µM", "value": 63.9, "unit": "%"},
      {"measurement": "viability, T/C", "setting": "second compound 0.316 µM, first compound 0.01 µM", "value": 49.8, "unit": "%"},
      {"measurement": "viability, T/C", "setting": "second compound 0.316 µM, first compound 0.0316 µM", "value": 48.8, "unit": "%"},
      {"measurement": "viability, T/C", "setting": "second compound 0.316 µM, first compound 0.1 µM", "value": 45.6, "unit": "%"},
      {"measurement": "viability, T/C", "setting": "second compound 0.316 µM, first compound 0.316 µM", "value": 38.1, "unit": "%"},
      {"measurement": "viability, T/C", "setting": "second compound 0.316 µM, first compound 1 µM", "value": 41.9, "unit": "%"},
      {"measurement": "viability, T/C", "setting": "second compound 1 µM, first compound 0.00316 µM", "value": 41.2, "unit": "%"},
      {"measurement": "viability, T/C", "setting": "second compound 1 µM, first compound 0.01 µM", "value": 41.3, "unit": "%"},
      {"measurement": "viability, T/C", "setting": "second compound 1 µM, first compound 0.0316 µM", "value": 32.4, "unit": "%"},
      {"measurement": "viability, T/C", "setting": "second compound 1 µM, first compound 0.1 µM", "value": 35.9, "unit": "%"},
      {"measurement": "viability, T/C", "setting": "second compound 1 µM, first compound 0.316 µM", "value": 33.3, "unit": "%"},
      {"measurement": "viability, T/C", "setting": "second compound 1 µM, first compound 1 µM", "value": 25.5, "unit": "%"},
      {"measurement": "viability, T/C", "setting": "second compound 3.16 µM, first compound 0.00316 µM", "value": 25.8, "unit": "%"},
      {"measurement": "viability, T/C", "setting": "second compound 3.16 µM, first compound 0.01 µM", "value": 29.7, "unit": "%"},
      {"measurement": "viability, T/C", "setting": "second compound 3.16 µM, first compound 0.0316 µM", "value": 24.5, "unit": "%"},
      {"measurement": "viability, T/C", "setting": "second compound 3.16 µM, first compound 0.1 µM", "value": 27.7, "unit": "%"},
      {"measurement": "viability, T/C", "setting": "second compound 3.16 µM, first compound 0.316 µM", "value": 23.4, "unit": "%"},
      {"measurement": "viability, T/C", "setting": "second compound 3.16 µM, first compound 1 µM", "value": 23, "unit": "%"},
      {"measurement": "viability, T/C", "setting": "second compound 10 µM, first compound 0.00316 µM", "value": 24.8, "unit": "%"},
      {"measurement": "viability, T/C", "setting": "second compound 10 µM, first compound 0.01 µM", "value": 26.2, "unit": "%"},
      {"measurement": "viability, T/C", "setting": "second compound 10 µM, first compound 0.0316 µM", "value": 23.3, "unit": "%"},
      {"measurement": "viability, T/C", "setting": "second compound 10 µM, first compound 0.1 µM", "value": 19.8, "unit": "%"},
      {"measurement": "viability, T/C", "setting": "second compound 10 µM, first compound 0.316 µM", "value": 21.6, "unit": "%"},
      {"measurement": "viability, T/C", "setting": "second compound 10 µM, first compound 1 µM", "value": 17.8, "unit": "%"}
    ]}
  ]
}
